# Where two headings read alike, the source gives them in different places. Square brackets hold non-standard residues; d marks the D form. Peptide text beside a SMILES is read from it.
# What was measured:
# [1] = LPS binding affinity by Isothermal Titration Calorimeter (ITC); design: species or system E. coli K1
# Source text: FPT (ADK 44-54) is denoted by wild type (WT), and peptides in which a point mutation occurred at various sites in WT were manufactured (FP3, FP5, FP6, and FP9). To increase the interaction with LPS in a residue sequence of FP3, peptides were designed based on FP3- and LPS-binding models (FP12-NH2 and FP13-NH2), and peptides were designed by additionally introducing a non-natural amino acid and an amino acid isomer (allomeric D-type amino acid) (allD FP12-NH2, allD FP13-NH2, allD FP-13-9a, allD FP-13-9w, allD FP-13-9k, and allD FP13-NH2 (AcOH)). In addition, an N-terminus PEGylated peptide (PEG-alld FP13-NH2 (AcOH)) was additionally designed, synthesized, and provided by ANYGEN, Co. Ltd. The binding affinity between each of the provided peptides and lipopolysaccharide (LPS) was confirmed through measuring the binding affinity (Kd) using Isothermal Titration Calorimeter (ITC).
# Specifically, a method of analyzing binding affinity (Kd) between a peptide and LPS is as follows.
# Measurement was carried out using a Malvern MicroCal PEAQ-ITC cell instrument, and the following pretreatment was carried out to confirm interaction with LPS. The amount and morphology of a sample cell are 300 μL and coin-shaped, fixed-in-place, respectively; a syringe rotation rate was 1,200 rpm; and a temperature was 30° C., 35° C. or 25° C.
# Before the experiment, LPS and the peptide were previously diluted with PBS, thereby preparing 2 mM LPS and 0.2 mM peptide. 300 μL of the peptide was added into cells in the ITC instrument, which had been washed, and 40 μL of LPS was put into a syringe. After measurement conditions for ITC (temperature, number of injections) were set, the syringe was inserted into the cell, and ITC measurement was started. When the measurement was completed, analysis is performed, and the Kd values of LPS and the peptide were calculated.
# CR-Klebsiella pneumoniae = details: CR-
# Procedure: (§1) The antibacterial activity was evaluated according to an antibacterial activity test method for measuring the minimum inhibitory concentration 50 (MIC50; the minimal concentration that kills 50% of bacteria).
# (§2) More specifically, 100 μL of a medium was dispensed into each well of a 96-well plate, and in the first column, an antibiotic and a peptide in 200 μL of the medium were dispensed. 1/2 serial dilution was performed from columns 1 to 11 and five types of antibiotic-resistant bacteria (ESBL-resistant E. coli, carbapenem-resistant A. baumannii, carbapenem-resistant Klebsiella pneumoniae, carbapenem-resistant Pseudomonas aeruginosa, colistin-resistant Acinetobactor baumannii), which had been previously cultured, were diluted (OD600 nm value in dilution: approximately 0.0025) and dispensed into each well. The plate was incubated in a 37° C. incubator for 4 hours, and measured at OD600 nm.
# [2] = system: Colistin resistant AB (Acinetobactor baumannii)
# Procedure: as §1, §2
# ESBL (E. coli) = details: ESBL
# Procedure: as §1, §2
# [3] = system: Carbapenem resistant (CR)-Acinetobactor baumannii; assay: organism not typed
# Procedure: as §1, §2
# E. coli = assay type: cell-based
# A. baumannii = assay type: cell-based
# [4] = Calcein dye leakage from liposome mimicking gram-negative bacterial cell membrane; assay type: biochemical; details: calcein-encapsulated liposome
# Procedure: (§3) To study an action mechanism for FP12-NH2, FP13-NH2, allD FP12-NH2, and allD FP13-NH2 peptides, the disruption ability of the peptides against liposomes mimicking a bacterial cell membrane and a red blood cell membrane was measured.
# (§4) EYPG is an abbreviation for egg yolk L-α-phosphatidyl-DL-glycerol, and EYPC is an abbreviation for egg yolk 1,2-diacyl-sn-glycero-3-phosphocholine. CH is an abbreviation for cholesterol. After dissolving the phospholipids composed according to the content of each component in chloroform, the chloroform was removed using a rotary evaporator, and lyophilization was performed overnight. Afterward, the dried lipid film was dissolved in a Tris-buffer solution, and calcein […]. After repeated freezing and thawing, the calcein-encapsulated liposome was manufactured using an extruder. Subsequently, after an excitation wavelength of a spectrofluorimeter (Shimadzu RF 5301 PC spectrofluorimeter, Japan) was set to 490 nm, and an emission wavelength was set to 520 nm, the peptide was administered to the liposome to measure relative dye leakage, provided that a 100% dye leakage was expressed as fluorescence intensity when 0.010% Triton-X100 was added.
# (§5) The upper graphs of FIG. 3 show the % dye leakage for an EYPC/EYPG (7:3, w/w) liposome mimicking bacterial cells, encapsulating a fluorescent dye, calcein, by a peptide according to a peptide concentration. […] The lower graphs of FIG. 3 show the % dye leakage for an EYPC/CH (10:1, w/w) liposome, which is […] mimicking a human red blood, encapsulating a fluorescent dye, calcein, by a peptide according to a peptide concentration.
# [5] = Calcein dye leakage from liposome mimicking human red blood cell membrane; assay type: biochemical; details: calcein-encapsulated liposome
# Procedure: as §3, §4, §5
# [6] = Calcein dye leakage from liposome mimicking gram-positive bacterial cell membrane; assay type: biochemical; details: calcein-encapsulated liposome
# Procedure: To study the action mechanisms for FPT2-NH2, FPT3-NH2, allD FPT2-NH2, and allD FP13-NH2 peptides, the disruption ability of the peptides against a liposome mimicking a bacterial cell membrane was measured.
# [7] = LTA binding by ITC analysis; details: cell wall component of gram-positive bacteria (S. aureus)
# Source text: (§6) The binding affinity to lipoteichoic acid (LTA) and lipoprotein (LPP), which are cell wall components of gram-positive bacteria (S. aureus), was confirmed through ITC analysis using allD FP13-NH2.
# (§7) The binding affinity was confirmed using the ITC analysis method, and the experimental method in Example 1 was applied mutatis mutandis.
# lipoprotein (LPP) = assay: LPP binding by ITC analysis; details: cell wall component of gram-positive bacteria (S. aureus)
# Source text: as §6, §7
# [8] = system: trypsin, protease K, and chymotrypsin; details: read out by antibacterial activity
compound,measurement,setting,value
CC(C)C[C@@H](NC(=O)[C@H](N)CCCCN)C(=O)N[C@H](CCCNC(=N)N)C(=O)N[C@@H](C(=O)N[C@H](CCCCN)C(=O)N[C@H](CC(C)C)C(=O)N[C@H](CCCNC(=N)N)C(=O)N[C@H](CCCNC(=N)N)C(=O)N[C@H](Cc1ccc(O)cc1)C(=O)N[C@H](CC(C)C)C(=O)N[C@H](CCCNC(=N)N)C(N)=O)C(C)C [allD FP13-NH2] (H-[dK][dL][dR][dV][dK][dL][dR][dR][dY][dL][dR]-NH2; N-terminus assumed),LPS binding affinity (in words),"[1]; compared with FP1 (wild type, WT)",strong LPS binding affinity
same,Kd,"[1]; peptide binding to LPS, read-out: Kd (calculated by ITC)",4.78 µM
same,"MIC50, CR-Klebsiella pneumoniae",CR-Klebsiella pneumoniae,<8 µg/mL
same,"MIC50, Colistin resistant AB",[2],<16 µg/mL
same,"MIC50, ESBL (E. coli)",ESBL (E. coli),<0.5 µg/mL
same,"MIC50, Carbapenem resistant (CR)-Acinetobactor baumannii",[3],<4 µg/mL
same,MIC50,E. coli,2 µM
same,MIC90,E. coli,4 µM
same,MIC90,E. coli; E. coli + 0.8 uM Chymotrypsin,6(4~8) uM
same,MIC90,E. coli; E. coli + 0.8 uM protease K,6(4~8) uM
same,MIC50,A. baumannii,4 µM
same,MIC90,A. baumannii,8 µM
same,"dye leakage, PC/PG (7:3, w/w) liposome mimicking a bacteria cell membrane",[4],high dye leakage
same,"dye leakage, PC/CH liposome mimicking a red blood cell membrane",[5],almost no dye leakage
same,"dye leakage, EYPG/EYPC (6:4, w/w) liposome mimicking gram-positive bacterial cell membrane",[6],high dye leakage
same,binding to LTA (ITC),[7],binds
same,binding to LPP (ITC),lipoprotein (LPP),binds
same,MIC50,S. aureus,4 µM
same,MIC90,S. aureus,8 µM
same,resistance to the proteolytic enzyme,[8],much improved resistance

# — patent publication US12371453B2, “Polypeptide having antibacterial activity, composition for preventing or treating sepsis comprising same, and antibacterial composition” (priority 2019, dated 2025)
